Measurements published in a melting point compilation (Tetko et al.; mined from patent text by program, amines drawn as free bases though some values may be those of a salt).

SMILES | melting point
CCCc1nc(SSc2nc(CCC)n(-c3ccc([N+](=O)[O-])cc3)n2)nn1-c1ccc([N+](=O)[O-])cc1 | 172 °C
COc1ccc(-c2ccccc2)c2sc(N)nc12 | 207 to 208 °C
CCOc1cc2c(cc1OCC)C(C=Cc1ccc(O)c(OC)c1)=NN=C(C)C2 | 190 to 191 °C
O=C(CCl)C1=NOC(c2ccccc2F)C1 (stereo not drawn) | 42 to 44 °C
N#Cc1cn(COCCO)c2ncnc(N)c12 | 178 °C
O=C(O)c1cc(CO[N+](=O)[O-])cc(CO[N+](=O)[O-])c1 | 39 to 41 °C
CN1C=CCC(C(=O)OC2CCC3C4CCC5=CC(=O)CCC5(C)C4CCC23C)=C1 (stereo not drawn) | 172 to 175 °C
CC(C)(C)C(=O)Nc1ccncc1 | 137 to 140 °C
Clc1cnc2ccc(Br)cc2n1 | 145 °C
CC1(C)CC(Nc2nc(Cl)nc(NC3CC(C)(C)NC(C)(C)C3)n2)CC(C)(C)N1 | 270 °C
O=C1CN(c2ccc(Oc3ccccc3)cc2)C(=S)N1c1ccc([N+](=O)[O-])cc1 | 204 °C
CCC#CN1CCC(O)(Cc2ccccc2)CC1 | 51 to 53 °C
Nc1nc(N)nc(C23CCN(CC2)CC3)n1 | > 245 °C
CCNC(=O)N1C2=NC(C)(C)N(C)C(=O)N2c2ccccc21 | 127 to 131 °C
CCCCC(=O)C1(Nc2ccccc2)CCN(CCc2ccccc2)CC1 | 71.3 °C
Cc1cc(Cl)ccc1Oc1ccc(C(=O)C=CC(=O)O)cc1 | 138 to 139 °C
NS(=O)(=O)OCCOc1cccc(OCCOS(N)(=O)=O)c1 | 147 to 149 °C
COc1nc2ccccc2nc1NC(=O)N1CCN(c2cccc(Br)c2)CC1 | 148 to 150 °C
CN(C)C(=O)Cc1ccccc1Nc1ccnc2cc(C(F)(F)F)ccc12 | 172 to 173 °C
O=C(c1ccc2nonc2c1)N1CCCCC1 | 88.5 to 90.5 °C
CC(C)(C)OC(=O)CC1=CCC(=O)Nc2ccccc21 | 136 to 138 °C
N#Cc1c(C(F)(F)F)[nH]c2cc(Cl)c(Cl)cc12 | > 260 °C
N#Cc1[nH]c2ccc([N+](=O)[O-])cc2c1-c1ccccc1 | 242 to 254 °C
COC(C)(CCCCCC(C)(C)O)c1cccc(C=Cc2cc(O)cc(O)c2)c1 (stereo not drawn) | 65 to 75 °C
CC(C)c1nc(N)oc1-c1cccc2ccccc12 | 127 to 129 °C

SMILES | melting point
Cc1sc(C(N)=O)c2c1-c1nn(CC(F)(F)F)cc1CC2 | 227 to 228 °C
C#CC1(O)C=CC2C3CCC4=CC(=O)CCC4(C)C3CCC21C (stereo not drawn) | 206 °C
CC(C)CC(SC1CCCC1)c1c(O)cc(-c2ccccc2)oc1=O (stereo not drawn) | 146 to 149 °C
COC(=O)C(=CN(C)C)N(C)c1cc(-c2ccc(Cl)cc2)on1 | 190 °C
CCOC(=O)c1cn2c3c(c(-c4ccccc4)ccc3c1=O)OCC2C (stereo not drawn) | 246 °C
Cn1cc(-c2cccc(N3Cc4cc(C5CC5)sc4C3=O)c2CO)cc(Nc2ccncn2)c1=O | 140 to 141 °C
CC1(C(=O)c2c[nH]c3ncc(-c4ccc(N5CCNCC5)cc4)nc23)CCCCC1 | 214 to 216 °C
CCOC(=O)c1cn(C2CC2)c2cc(NCCO)c(F)cc2c1=O | 228 to 230 °C
O=C(O)c1cc2ccccc2n1Cc1cc([N+](=O)[O-])cc2[nH]c(=O)c(=O)[nH]c12 | > 300 °C
CN1C(=O)CC(c2ccccc2)C1C(O)c1ccc(Br)s1 (stereo not drawn) | 105 °C
CN(C)c1cc2ccc(OCc3ccccc3)cc2s1 | 78 to 81 °C
CC(=O)CCCCc1ccc(-c2ccccc2F)cc1 | 37 to 38 °C
CC1(C)C2CCC1(CS(=O)(=O)NCCC1CCc3ccccc31)C(=O)C2 (stereo not drawn) | 52 to 70 °C
c1ccc(CNc2ccnc3ccccc23)cc1 | 132 °C
CC(=O)Oc1ccc(NC(=O)OC(C)(C)C)cc1C(=O)O | 76 to 78 °C
CC(C)(C)n1nnc(-c2ccc(CCC(=O)O)cc2)n1 | 88 to 90 °C
NNc1ccc(Cl)cc1F | 57 to 63 °C
CC(C)c1oc(C=Cc2ccccc2)nc1CC(=O)O | 155 to 156 °C
CC(C)NCC(O)COc1cccc(Cl)c1Cl (stereo not drawn) | 94 to 96 °C
COC(=O)C(O)C(NCc1ccccc1)c1ccccc1 (stereo not drawn) | 99 °C
O=C(c1ccc2nonc2c1)N(C1CCOCC1)C1CC1 | 108 to 109 °C
NC1CCCN(c2ncc3ncnc(Nc4ccc(F)c(Cl)c4)c3n2)CC1 (stereo not drawn) | 122 to 124 °C
COC(=O)CCC(=O)c1cc(C(C)C)c(Oc2nnnn2-c2ccccc2)c(C(C)C)c1 | 122 to 123 °C
N#CNc1nc2c(s1)Cc1cc(Cl)ccc1-2 | 225 °C
C[C@H](OC(=O)Oc1ccc([N+](=O)[O-])cc1)C(=O)N[C@@H]1C(=O)Nc2c(F)cccc2O[C@@H]1C | 140 to 145 °C

SMILES | melting point
CC(=O)NNc1ccnc2c(NC(=O)c3c(Cl)cccc3Cl)ccc(C)c12 | 230 to 234 °C
NC(=O)c1c(Cl)c(-c2ccccc2)n2c1CN(S(=O)(=O)c1ccc([N+](=O)[O-])cc1)CC2 | 203 to 205 °C
Cc1nc(N2CCN(CCc3ccccc3)C2=O)sc1C(=O)NCc1ccccc1 | 156 to 157 °C
O=C(O)c1ccc(-c2nc(-c3ccccc3)ccc2Cl)cc1 | 254 to 255 °C
Cc1cc(C)n2nc(NS(=O)(=O)c3ccccc3[N+](=O)[O-])nc2n1 | 255 to 256 °C
Cc1cc(C)c(C2C(=O)N(C)C3(CCN(N(C)C)CC3)C2=O)c(C)c1 (stereo not drawn) | > 195 °C
N#Cc1cn(CCl)cc1-c1cccc(Cl)c1Cl | 132 to 133 °C
Cc1c([N+](=O)[O-])cc(S(F)(F)(F)(F)F)cc1[N+](=O)[O-] | 108 to 109 °C
CS(=O)(=O)c1ccc(-c2cnn(-c3cccc(Cl)c3)c(=O)c2C2CCCCC2)cc1 | 85 to 90 °C
CC(C)C(=O)c1cc2ccncc2[nH]1 | 224 to 228 °C
CCCCCCCCCCCCCCc1ccc(O)c(C(C)=O)c1 | 38.5 to 39.5 °C
Cc1oc(-c2ccccc2)nc1COc1ccc(Cn2cc(CCC(=O)O)c(OC(C)C)n2)cc1 | 106 to 107 °C
O=C(NN1CCCCC1)c1nc(-c2ccc(Cl)cc2Cl)n(-c2ccc(Cl)cc2)c1Br | 182 to 183 °C
COc1cc2ccc(CC(=S)N3CCOCC3)cc2cc1OC | 158 to 161 °C
CC(C)=CCOc1ccc2c(C)cc(=O)oc2c1C(=O)C=Cc1ccccc1 | 114 to 116 °C
N#Cc1c(N2CCCC2)cc(-c2ccccc2)c2c1-c1ccccc1C2=O | 202 to 204 °C
C#CC(OC)c1cc(C(C)(C)C)cc(C(C)(C)C)c1OC (stereo not drawn) | 68 to 70 °C
COc1cc(Nc2c(C#N)cnc3cc(Br)sc23)c(Cl)cc1Cl | 228 to 229 °C
CC(=O)Nc1ccc(C=CC(=O)c2ccc(OCC=C(C)C)cc2O)cc1 | 150 to 152 °C
CS(=O)(=O)c1c(O)c2cccnc2n(Cc2ccccc2)c1=O | 155 °C
CCCCCCCCSCC(=O)[C@H](Cc1ccccc1)NC(=O)[C@H](CC(C)C)NC(=O)OCc1ccccc1 | 69 °C
CCC1(CC)C(=O)N(C(C)(C)C)CC(C)(C)N1OC(=O)C(c1ccccc1)c1ccccc1 | 109 °C
CCN(C=O)c1nc2ccc(CCc3ccco3)cc2o1 | 54 to 58 °C
